According to article PMC12610721, “The Action of Cannabidiol on Doxycycline Cytotoxicity in Human Cells—In Vitro Study” (Molecules, 2025):
Entries after “also recorded” stand apart in the source; their conditions may differ. Where two headings read alike, the source gives them in different places.

How the values were obtained:
HepG2 cells [1] = assay: DNA synthesis (BrdU assay)
Description: (§1) This innovative study evaluated the effects of cannabidiol (Cannabis sativa L.) on doxycycline-induced toxicity using three cell cultures: neural—SH-SY5Y, liver—HepG2, and kidney—HEK-293. […] A series of cytotoxicity assays included assessments of mitochondrial activity, lysosomal activity, cell membrane integrity, DNA synthesis, and cell proliferation. Based on the obtained results, IC50 values for doxycycline, both in monotherapy and in combination with CBD, were calculated, along with evaluations of ROS, death of cells, and morphology. The interaction between the drug and CBD was further analyzed by the combination index (CI).
(§2) Cell proliferation was evaluated using the BrdU assay (Cell Proliferation ELISA, BrdU [colorimetric], Roche, Switzerland) according to the manufacturer’s instructions. Briefly, BrdU was incorporated into newly synthesized DNA in place of thymidine during cell division. Incorporated BrdU was detected using an anti-BrdU antibody conjugated with peroxidase. The enzymatic reaction product was quantified by measuring absorbance. Absorbance was measured at 370 nm and 492 nm using the Synergy 2 Multi-Mode Microplate Reader (BioTek® Instruments Inc., Winooski, VT, USA), with a blank as reference.
(§3) To determine the types of interaction that occur when cells are exposed to combinations of DOX and CBD, the method established by Chou and Talalay was used in this study. The dose–effect relationships of the individual and combined test compounds were modeled biometrically using the Median-Effect Equation based on the Mass Action Law.fa/fu = (D/Dm)^m
(§4) In this isobolographic analysis, the combination index (CI) is a quantitative parameter used to evaluate the type and strength of interactions between multiple compounds. For all combinations, CI values were calculated across a range of affected fractions (Fa) from 0.05 to 0.95 (corresponding to 5–95% toxicity). CI values of 0.9–1.1, <0.9, and >1.1 indicate additive, synergistic, and antagonistic effects, respectively.
(§5) The study was conducted in three independent experiments (n = 3). […] Cytotoxicity data were analyzed using one-way analysis of variance (ANOVA), followed by Dunnett’s post hoc test to assess significance relative to the negative control. The half-maximal inhibitory concentration (IC50), representing the drug or drug–CBD mixture concentration required to inhibit cell viability by 50%, was calculated using GraphPad Prism 5.0. Statistical comparisons between IC50 values were performed using ANOVA followed by Tukey’s post hoc test. Differences were considered statistically significant at p ≤ 0.05.

SH-SY5Y cells [2] = assay: DNA synthesis (BrdU assay); conditions: 72 h
Description: as §1, §2, §3, §4, §5

HEK-293 cells [3] = assay: oxidative stress, ROS production (DCFH assay); type: cell-based, human
Description: (§6) Intracellular ROS levels were evaluated using the redox-sensitive fluorescent dye DCFH-DA [87]. Briefly, the cells were incubated with 5 μM DCFH-DA for 1 h at 37 °C in the dark. Thereafter, the tested compounds were added at the concentrations used in the study. Cells treated with 500 μM hydrogen peroxide (H2O2) served as a positive control. After 72 h of incubation, the fluorescence of 2′,7′-dichlorofluorescein (DCF) was measured. Fluorescence was recorded at 485/530 nm using a fluorescence microplate reader (BioTek® Instruments Inc., Winooski, VT, USA).

HepG2 cells [4] = assay: oxidative stress, ROS production (DCFH assay); type: cell-based, human; conditions: HepG2, DCFH-DA, 72 h
Description: as §6

SH-SY5Y cells [5] = assay: oxidative stress, ROS production (DCFH assay); type: cell-based, human; conditions: DCFH-DA, 72 h
Description: as §6

HEK-293 cells [6] = assay: apoptosis and necrosis (Hoechst 33342 + propidium iodide staining); type: cell-based, human; conditions: HEK-293, 72 h
Description: The type and extent of cell death in the control and treated cultures were evaluated using fluorochrome staining with Hoechst 33342 and propidium iodide to assess apoptosis and necrosis [88]. Dead cells were analyzed morphologically using a fluorescence microscope (Axiovert 200 M, Zeiss, Oberkochen, Germany). Cells with pink, fluorescent nuclei were considered necrotic, whereas cells with blue, fluorescent nuclei (fragmented and/or condensed chromatin) were classified as apoptotic.

HEK-293 cells [7] = assay: cellular morphology (May–Grünwald–Giemsa staining); type: cell-based, human; conditions: HEK-293, 72 h
Description: (§7) This method was used to illustrate changes in cell morphology under the influence of the tested compounds. The staining was performed on Lab-Tek plates (Nunc, NY, USA). Cells at a density of 1 × 10^5 cells/mL were used. After 72 h of incubation with or without the tested drugs (control), the culture medium was removed, and the cells were stained with 1 mL of May–Grünwald dye for 3 min at room temperature. Then, 1 mL of deionized water was added to each plate. After another 3 min of incubation at room temperature, the liquid was removed. All plates were rinsed with deionized water, and the cells were subsequently stained with Giemsa dye (dilution 1:20) for 30 min at room temperature. After staining, the dye was removed, the wells were rinsed with 1 mL of deionized water, and the plates were allowed to dry. Images were captured using a light microscope (Zeiss, Oberkochen, Germany).

HepG2 cells [8] = assay: cellular morphology (May–Grünwald–Giemsa staining); type: cell-based, human; conditions: HepG2, 72 h
Description: as §7

SH-SY5Y cells [9] = assay: cellular morphology (May–Grünwald–Giemsa staining); type: cell-based, human; conditions: 72 h
Description: as §7

[10] = cited from earlier work
[11] = system: rat neuronal cell line PC12; parameters: method as in PMID 33798505; conditions: PC12, 24 h, 20 µM (10.26 µg/mL); cited from earlier work
SH-SY5Y cells [12] = system: SH-SY5Y cells; parameters: method as in PMID 16341128; conditions: 24 h, cited from earlier work
HepG2 cells [13] = system: HepG2 cells; parameters: method as in PMID 22116976; conditions: HepG2, 20 µM (10.3 µg/mL); inhibited mitochondrial activity, membrane damage, increased ROS; cited from earlier work
HepG2 cells [14] = system: HepG2 cells; parameters: method as in PMID 32867402; conditions: cited from earlier work
normal HK-2 cells = system: normal HK-2 cells; parameters: method as in PMID 34644207; conditions: HK-2, 20 µg/mL, without triggering apoptosis; cited from earlier work
renal cancer cells = system: renal cancer cells; parameters: method as in PMID 34644207; conditions: cited from earlier work
various human cell lines = conditions: cited from earlier work

## C[C@H]1c2cccc(O)c2C(=O)C2=C(O)[C@]3(O)C(=O)C(C(N)=O)=C(O)[C@@H](N(C)C)[C@@H]3[C@@H](O)[C@@H]21 [DOX, doxycycline hyclate]
HepG2 cells [1]; HepG2, BrdU, 72 h
  doxycycline concentration that inhibited DNA synthesis: 12.5 µg/mL
HepG2 cells [1]; Homo sapiens, HepG2, 72 h
  IC50: 24 ± 0.4 µg/mL
SH-SY5Y cells [2]; BrdU
  doxycycline concentration that inhibited DNA synthesis: 12.5 µg/mL
SH-SY5Y cells [2]; Homo sapiens
  IC50: 15.6 ± 0.7 µg/mL
HEK-293 cells [3]
  doxycycline concentration from which free radical (ROS) production increased: lowest tested concentration
HepG2 cells [4]
  doxycycline concentration at which free radical (ROS) production increased significantly: 12.5 µg/mL
SH-SY5Y cells [5]
  doxycycline concentration from which free radical (ROS) production increased: 1.56 µg/mL
HEK-293 cells [6]
  apoptotic and necrotic cell fractions: increased apoptotic and necrotic cell fractions; also recorded: significant increase in apoptotic and necrotic cells
HEK-293 cells [7]
  morphological changes: cell aggregation followed by detachment from the adhesive surface
HepG2 cells [8]
  morphological changes: cell aggregation followed by detachment from the adhesive surface
SH-SY5Y cells [9]
  morphological changes: cell aggregation followed by detachment from the adhesive surface
[10]; breast muscles
  DOX level in breast muscles: 32.4 ± 3.6 µg/kg
[10]; eggs
  residues of DOX detected in eggs: up to 1400 μg/kg
[10]; kidneys
  DOX concentration accumulated in the kidneys: 44.7 ± 4.3 µg/kg
[10]; liver
  DOX concentration measured in the liver: 21.6 ± 3.2 µg/kg
[10]; milk
  residues of DOX detected in milk: 5 to 490 µg/kg
[10]; thigh muscles
  DOX level in thigh muscles: 22.7 ± 2.9 µg/kg
[11]
  neurotoxicity: no signs of neurotoxicity
SH-SY5Y cells [12]; 1 µg/mL
  effect on cell density: minimal
SH-SY5Y cells [12]; higher concentrations up to 4 µg/mL
  effect on cell density: decreased SH-SY5Y cell density
HepG2 cells [13]
  effect on cell viability: reduced cell viability
HepG2 cells [14]; HepG2, converted value in brackets
  concentration causing about a 50% reduction in cell viability: 10.3 to 13.0 µg/mL
HepG2 cells [14]; HepG2, read-out: concentration causing about a 50% reduction in cell viability
  IC50: 20 to 25 µM
Normal HK-2 cells
  effect on DNA synthesis: inhibited DNA synthesis
Renal cancer cells; cells of neoplastic origin
  concentration that significantly inhibited protein synthesis and mitochondrial complex activity: 5 µg/mL
Renal cancer cells; renal cancer cells
  concentration that induced apoptosis: 10 µg/mL
Various human cell lines; 96 h, 0.1 to 10 µg/mL, increased lactate production and decreased oxygen consumption
  effect of extended incubation on human cell lines: cytotoxic effects
Various human cell lines; tested human cell cultures
  concentration observed to inhibit proliferation and induce apoptotic cell death: 1000 ng/mL
